Test results published in patent publication US7311878B2, “Method and apparatus for producing synergistic biocide” (Hercules Incorporated, priority 2005, dated 2007).
Marks after values point to notes of the source that are not given here.

Tested on: multi-species bacterial consortium
Experiment: dose-challenge efficacy assay against bacterial consortium, spread plate cell enumeration
Assay type: cell-based
Conditions: for effect on cell counts of the consortium (in words) / population size of bacterial consortium, log10 colony counts: Example 1; for effect on cell counts of the consortium (in words): 0.5 mg/l total, 20 minutes exposure, pH 5 to 8; for population size of bacterial consortium, log10 colony counts: 20 minute exposure, total halogen 0.5 mg/l, average of three values; for numbers of surviving cells, Log10 transformations of the plate counts: Example 2, 20-minute contact time, 0.5 mg/l (as Cl2) active, initial approx. 2×10^5 bacteria per milliliter
Procedure: The efficacies of the individual haloamines and the synergistic combination produced with the apparatus described above were determined using a consortium of microorganisms and a dose-response protocol. Concentrations of monochloramine and dichloramine reported herein are in units of milligrams per liter as measured by Cl2 analysis; the Hach DPD chlorine test (Hach Company, Loveland, Colo.) was used to measure the total available chlorine concentrations and are expressed as milligrams per liter as Cl2. The DPD assay is based on the amount of chlorine in a sample that reacts with N,N-diethyl-p-phenylenediamine oxalate. To determine the amount of monochloramine or dichloramine in a sample, an aliquot of the sample was transferred to a clean container, diluted with deionized water, as appropriate, and assayed according to the Hach DPD chlorine test. The assay measures the total amount of chlorine that can react with the indicator reagent. The reaction is measured by determining the absorbance of light at 530 nm. Therefore, for the purposes of this invention, a quantity of monochloramine or dichloramine presented in units of mg/l signifies that amount of monochloramine or dichloramine that contains the designated amount of milligrams per liter of reactive chlorine. Thus, for example, a sample treated with 1 mg/l monochloramine or dichloramine will contain a total available chlorine concentration of 1 mg/l. Similarly, a sample treated with 0.5 mg/l monochloramine and 0.5-mg/l dichloramine will contain a total available chlorine concentration of 1 mg/l.
The materials were tested against multi-species bacterial consortium (also referred to as an artificial consortium) containing approximately equal numbers of six bacterial strains. Although the test strains are representative of organisms present in paper mill systems; the effect is not limited to these bacteria. Two of the strains were Klebsiella pneumonia (ATCC 13883) and Pseudomonas aeruginosa (ATCC 15442). The other four strains were isolated from papermill systems and have been presumptively identified as Curtobacterium flaccumfaciens, Burkholderia cepacia, Bacillus maroccanus, and Pseudomonas glathei. Each strain was grown on Tryptic Soy Agar overnight at 37° C. Sterile cotton-tipped swabs were used to aseptically transfer cells to a sterile solution of saline. Each cell suspension was prepared to a desired concentration as measured by turbidity before equal volumes of each of the cell suspensions were then combined to prepare the consortium.
A sample of the biocide solution was aseptically collected at the end of line 11 after the apparatus had been operated for approximately 20 minutes and used in an efficacy assay. Samples of the monochloramine solution in reservoir 3 and the dichloramine solution in mixing chamber 16 were also collected to test efficacy of each active. In the assay, the bacterial consortium was prepared as described above and an appropriate quantity of the cell suspension was aseptically transferred to sterile saline with pH adjusted to selected values. The cells were then challenged with the haloamines and synergistic combinations of the haloamines. In each case, the total halogen concentration was 0.5 mg/l (as […]). In this example, in addition to untreated control, the consortium was exposed to the following treatments: (1) 0.5 mg/l of monochloramine; 0.5 mg/l dichloramine; (3) 0.25 mg/l monochloramine plus 0.25 mg/l dichloramine; and (4) 0.4 mg/l monochloramine plus 0.1 mg/l dichloramine. The consortium was exposed to the haloamines for 20 minutes before samples were removed for cell enumeration by the spread plate technique. […] The control counts presented in Table 1 are those obtained after a 20 minute exposure to saline with pH adjusted to the indicated value.
The dose-challenge studies were carried out as previously described using a freshly prepared bacterial consortium. Sterile saline was prepared with pH adjusted to values of 5.0, 6.0, 7.0 and 8.0. […]

## NCl [MCA, monochloramine]
  effect on cell counts of the consortium (in words): decreased cell counts
pH 5 saline
  population size of bacterial consortium, log10 colony counts: 4.93 log10 colony counts
  numbers of surviving cells, Log10 transformations of the plate counts: 5.03 Log10
pH 6 saline
  population size of bacterial consortium, log10 colony counts: 4.94 log10 colony counts
  numbers of surviving cells, Log10 transformations of the plate counts: 4.84 Log10
pH 7 saline
  population size of bacterial consortium, log10 colony counts: 5.06 log10 colony counts
  numbers of surviving cells, Log10 transformations of the plate counts: 5.13 Log10
pH 8 saline
  population size of bacterial consortium, log10 colony counts: 5.36 log10 colony counts
  numbers of surviving cells, Log10 transformations of the plate counts: 5.41 Log10

## ClNCl [DCA, dichloramine]
  effect on cell counts of the consortium (in words): decreased cell counts
pH 5 saline
  population size of bacterial consortium, log10 colony counts: 3.50 log10 colony counts
  numbers of surviving cells, Log10 transformations of the plate counts: 3.56 Log10
pH 6 saline
  population size of bacterial consortium, log10 colony counts: 5.16 log10 colony counts
  numbers of surviving cells, Log10 transformations of the plate counts: 5.16* Log10
pH 7 saline
  population size of bacterial consortium, log10 colony counts: 5.01 log10 colony counts
  numbers of surviving cells, Log10 transformations of the plate counts: 5.07 Log10
pH 8 saline
  population size of bacterial consortium, log10 colony counts: 5.19 log10 colony counts
  numbers of surviving cells, Log10 transformations of the plate counts: 5.24 Log10
